Experimental findings from patent publication US20060040854A1, “Prostate hyperplasia therapy” (Board of Regents, The University of Texas System, priority 2004, published 2006) are described below.

For series [1], the system named is dogs with spontaneous benign prostatic hypertrophy. How it is done:
The effect of insulin-6 on prostate size in benign prostatic hyperplasia is evaluated in a comparative study of finasteride and insulin-6 on size of the prostate gland and semen quality in dogs with benign prostatic hypertrophy in a protocol adapted from Sirinarumitr et al., J Am Vet Med Assoc. 2001 Apr. 15;218(8):1275-80.
Of […] dogs with BPH, five dogs are treated with insulin-6 or finasteride for 16 weeks (0.1 to 0.5 mg/kg [0.05 to 0.23 mg/lb] of body weight, PO, q 24 h); the other 4 receive a placebo. Prostatic diameter, measured radiographically, prostatic volume, measured ultrasonographically, semen quality, and serum DHT and testosterone concentrations are evaluated before and during treatment. After receiving the placebo for 16 weeks, the control dogs are treated with insulin-6 or finasteride for 16 weeks, and evaluations repeated.

Series [2] relates to androgen-induced prostatic enlargement in rats. In words: Androgen-induced prostatic enlargement in castrated rats, finasteride vs insulin-6. Format: in vivo. How it is done:
The efficacy of insulin-6 in reducing prostate growth is evaluated against finasteride in a comparative therapeutic protocol adapted from Talpur et al,0 Mol Cell Biochem. 2003 August;250(1-2):21-6. Pharmaceutical finasteride and alpha blockers are used to treat symptoms of benign prostatic hyperplasia (BPH) and are known to cause severe adverse reactions. The present study compares the in vivo effects of finasteride on androgen-induced prostatic enlargement in rats with insulin-6. Non-castrated rats, have a mean prostate weight of 124 mg+/−8.8 (S.E.M.) compared to the 24.5 mg+/−1.9 (S.E.M.) of a castrated rat followed under the same regimen (p<0.01). […] In the two treatment groups, castrated rats receiving testosterone are given finasteride or insulin-6.

Series [3] concerns symptomatic benign prostatic hyperplasia (BPH). The series is described as follows: Prospective study of finasteride, insulin-6 and combination in symptomatic benign prostatic hyperplasia. Format: in vivo. To be noted: men with BPH. As for the experimental part: A prospective study is used to evaluate the therapeutic effect of finasteride, insulin-6, and a combination of finasteride and insulin-6 drugs for symptomatic benign prostatic hyperplasia (BPH). In a protocol adapted from Kuo (Urol Int. 1998;60(2):85-91), 190 men suffering from severe prostatism are subjected to study.
Patients are assessed by IPSS symptom score, digital rectal examination, transrectal sonography of the prostate, uroflowmetry and residual urine. The patients are randomly selected for medical treatment with insulin-6 (n=71), finasteride 5 mg q.d. (n=54), and a combination (n=65). Clinical assessments are carried out before treatment and 3 and 6 months after starting treatment. Patients who can not complete the treatment and those with prostatic cancer are excluded from the final statistics. The quality of life after 6 months of treatment and side effects are also assessed.

With `CC(C)(C)NC(=O)[C@H]1CC[C@H]2[C@@H]3CC[C@H]4NC(=O)C=C[C@]4(C)[C@H]3CC[C@]12C` [finasteride], in series [1] (dog, in vivo), the semen quality result is “do not adversely effect” and the semen volume entry is on record as “decrease semen volume”. Also, in series [1] (dogs with BPH, 16 weeks, 0.1 to 0.5 mg/kg PO q 24 h), the “serum DHT concentration, mean percentage decrease” value amounted to 58%. Besides, in series [1] (dogs with BPH, 16 weeks, 0.1 to 0.5 mg/kg PO q 24 h, measured radiographically), the “prostatic diameter, mean percentage decrease” value turned out to be 20%. The “prostatic volume, mean percentage decrease” value in series [1] (dogs with BPH, 16 weeks, 0.1 to 0.5 mg/kg PO q 24 h, measured ultrasonographically) is on record as 43%. The “size of the prostate” value in series [2] (castrated rats receiving testosterone plus treatment) is reported as “decrease the size of the prostate to roughly the same size as in the non-castrated rats”. Further, in series [3] (after 6 months of treatment), the “quality of life after treatment” value was “satisfactory”. The IPSS symptom score entry in series [3] (at 3 and 6 months) is “Improvement in IPSS is noted”. In addition, in series [3] (at 6 months), the “Maximal flow rate (Qmax)” value is reported as “significant increase in Qmax” and the prostatic volume entry is recorded as “found to decrease”.

`C[C@]12CC[C@H]3[C@@H](CCC4=CC(=O)CC[C@@]43C)[C@@H]1CC[C@@H]2O` [testosterone] came in with a mean prostate weight in series [2] (castrated rats given testosterone, S.E.M. 31.7, p<0.01) of 250.0 mg.
